In brackets after ≈: the same amount, converted by molar mass. Blank lines part the entries; values can stand above or below the compound they belong to.
Experiments:
[1] = test system: MDA-MB-435; assay: Antiproliferative activity against human MDA-MB-435 cells; format: functional, cell-based
[2] = test system: Escherichia coli; assay: Antibacterial activity against Escherichia coli assessed as zone of inhibition; format: functional
[3] = test system: Staphylococcus aureus; assay: Antibacterial activity against Staphylococcus aureus assessed as zone of inhibition; format: functional
[4] = test system: Bacillus subtilis; assay: Antibacterial activity against Bacillus subtilis ATCC 465; format: functional
[5] = test system: Bacillus pumilus; assay: Antibacterial activity against Bacillus pumilus PTCC 1114; format: functional
[6] = test system: Micrococcus luteus; assay: Antibacterial activity against Micrococcus luteus PTCC 1110; format: functional
[7] = test system: Streptococcus mutans; assay: Antibacterial activity against Streptococcus mutans PTCC 1601; format: functional
[8] = test system: Staphylococcus epidermidis; assay: Antibacterial activity against Staphylococcus epidermidis ATCC 12228; format: functional
[9] = test system: Staphylococcus aureus; assay: Antibacterial activity against Staphylococcus aureus ATCC 25923; format: functional
[10] = test system: Escherichia coli; assay: Antimicrobial activity against Escherichia coli ATCC 25922; format: functional
[11] = test system: Enterococcus faecalis; assay: Antibacterial activity against Enterococcus faecalis ATCC 29737; format: functional
[12] = test system: MDA-MB-231; assay: cells; format: functional, cell-based; settings: Homo sapiens
Description: Antiproliferative activity against human MDA-MB-231 cells

[13] = test system: HeLa; assay: Antiproliferative activity against human HeLa cells; format: functional, cell-based
[14] = test system: Aspergillus niger; assay: Antifungal activity against Aspergillus niger; format: functional
[15] = test system: Aspergillus flavus; assay: Antifungal activity against Aspergillus flavus; format: functional
[16] = Antioxidant activity assessed as DPPH radical scavenging activity at 1 mg/ml relative to control; format: functional
[17] = test system: HepG2; assay: cells; format: functional, cell-based; settings: Homo sapiens
Description: Antiproliferative activity against human HepG2 cells

[18] = test system: A549; assay: Cytotoxicity against human A549 cells incubated for 48 hrs by MTT assay; format: functional, cell-based; settings: A549, 48 h
[19] = test system: HeLa; assay: Cytotoxicity against human HeLa cells incubated for 48 hrs by MTT assay; format: functional, cell-based
[20] = test system: MCF7; assay: Cytotoxicity against human MCF7 cells incubated for 48 hrs by MTT assay; format: functional, cell-based; settings: MCF7, 48 h
[21] = test system: DU-145; assay: Cytotoxicity against human DU-145 cells incubated for 48 hrs by MTT assay; format: functional, cell-based; settings: DU-145, 48 h
[22] = test system: A549; assay: Anticancer activity against human A549 cells by MTT assay; format: functional, cell-based
[23] = test system: MCF7; assay: Cytotoxicity against human MCF7 cells; format: functional, cell-based
[24] = test system: A549; assay: Antiproliferative activity against human A549 cells; format: functional, cell-based
[25] = test system: Streptococcus pneumoniae; assay: Antibacterial activity against Streptococcus pneumoniae incubated for 24 to 48 hrs by agar diffusion well method; format: functional; settings: time 24-48 hrs
[26] = test system: Bacillus subtilis; assay: Antibacterial activity against Bacillus subtilis incubated for 24 to 48 hrs by agar diffusion well method; format: functional; settings: time 24-48 hrs
[27] = test system: Pseudomonas aeruginosa; assay: Antibacterial activity against Pseudomonas aeruginosa incubated for 24 to 48 hrs by agar diffusion well method; format: functional; settings: time 24-48 hrs
[28] = test system: Escherichia coli; assay: Antibacterial activity against Escherichia coli incubated for 24 to 48 hrs by agar diffusion well method; format: functional; settings: time 24-48 hrs
[29] = test system: Aspergillus fumigatus; assay: Antifungal activity against Aspergillus fumigatus RCMB 02568; format: functional
[30] = test system: Syncephalastrum racemosum; assay: Antifungal activity against Syncephalastrum racemosum RCMB 05922; format: functional
[31] = test system: Geotrichum candidum; assay: Antifungal activity against Geotrichum candidum RCMB 05097; format: functional
[32] = test system: Candida albicans; assay: Antifungal activity against Candida albicans RCMB 05036; format: functional
[33] = test system: Klebsiella pneumoniae; assay: Antibacterial activity against Klebsiella pneumoniae ATCC 29655; format: functional
[34] = test system: Pseudomonas aeruginosa; assay: Antibacterial activity against Pseudomonas aeruginosa ATCC 85327; format: functional
[35] = test system: Aspergillus fumigatus; assay: Antifungal activity against Aspergillus fumigatus RCMB 02568 assessed as zone of inhibition; format: functional
[36] = test system: Syncephalastrum racemosum; assay: Antifungal activity against Syncephalastrum racemosum RCMB 05922 assessed as zone of inhibition; format: functional
[37] = test system: Geotrichum candidum; assay: Antifungal activity against Geotrichum candidum RCMB 05097 assessed as zone of inhibition; format: functional
[38] = test system: Candida albicans; assay: Antifungal activity against Candida albicans RCMB 05036 assessed as zone of inhibition; format: functional

Structure (SMILES): CCOC1=Nc2ccccc2/C1=C\C(=O)c1ccc(Cl)cc1
- diameter of the inhibition zone (DIZ) [2]: 6 mm
- diameter of the inhibition zone (DIZ) [3]: 6 mm

Structure (SMILES): Cc1coc2c1C(=O)C(=O)c1c-2ccc2c1CCCC2(C)C [TANSHINONE IIA]
- IC50 [17]: 23900 nM

Structure (SMILES): COc1cc([C@@H]2c3cc4c(cc3[C@@H](O[C@@H]3O[C@@H]5CO[C@@H](C)O[C@H]5[C@H](O)[C@H]3O)[C@H]3COC(=O)[C@H]23)OCO4)cc(OC)c1O [ETOPOSIDE]
- IC50 [18]: 2200 nM
- IC50 [19]: 1000 nM
- IC50 [20]: 1600 nM
- IC50 [21]: 2100 nM

Structure (SMILES): CCOC(=O)C1=C(C(=O)OCC)C2(NC1(C(=O)OCC)C(=O)OCC)C(=O)N(C)c1ccc(C)cc12 (stereo not drawn)
- IC50 [23]: 20800 nM

Structure (SMILES): CC(=O)O[C@H]1C(=O)[C@@]2(C)[C@H]([C@H](OC(=O)c3ccccc3)[C@]3(O)C[C@H](OC(=O)[C@H](O)[C@@H](NC(=O)c4ccccc4)c4ccccc4)C(C)=C1C3(C)C)[C@]1(OC(C)=O)CO[C@@H]1C[C@@H]2O [PACLITAXEL]
- IC50 [12]: 100 nM
- IC50 [13]: 6 nM

Structure (SMILES): O=C1OCC2=C1C1(Nc3ccc(Cl)cc3N2)C(=O)Nc2ccccc21 (stereo not drawn)
- IC50 [18]: 2900 nM
- IC50 [19]: 5400 nM
- IC50 [20]: 9500 nM
- IC50 [21]: 1700 nM

Structure (SMILES): Cc1ccc2c(c1)C1(Nc3ccccc3NC3=C1C(=O)OC3)C(=O)N2 (stereo not drawn)
- IC50 [18]: 1500 nM
- IC50 [19]: 9600 nM
- IC50 [20]: 2100 nM
- IC50 [21]: 1300 nM

Structure (SMILES): O=C1C(=O)c2ccccc2C2=C1C1(C(=O)Nc3ccc(F)cc31)N1NN=NC1=N2 (stereo not drawn)
- IC50 [17]: 2900 nM

Structure (SMILES): N[C@@H](CCC(=O)N[C@@H](CS)C(=O)NCC(=O)O)C(=O)O
- Activity [16]: 92%

Structure (SMILES): O=C1NC(=S)S[C@]12C1CCCN1[C@@]1(C(=O)Nc3ccccc31)[C@H]2c1ccccc1 (stereo partly drawn)
- diameter of the inhibition zone (DIZ) [35]: 16 mm
- diameter of the inhibition zone (DIZ) [36]: 14 mm
- diameter of the inhibition zone (DIZ) [37]: 24 mm
- diameter of the inhibition zone (DIZ) [38]: 25 mm

Structure (SMILES): CCOC1=Nc2ccc(Br)cc2/C1=C\C(=O)c1ccccc1
- diameter of the inhibition zone (DIZ) [2]: 6 mm
- diameter of the inhibition zone (DIZ) [3]: 7 mm

Structure (SMILES): CCOC1=Nc2ccc(Br)cc2/C1=C\C(=O)c1cccc2ccccc12
- diameter of the inhibition zone (DIZ) [2]: 6 mm
- diameter of the inhibition zone (DIZ) [3]: 6 mm

Further lines, with some results ahead:

- IC50 [1]: 1800 nM
Structure (SMILES): N#CC1=C(N)OC2=C(C(=O)c3ccccc32)C12C(=O)Nc1ccc(Br)cc12 (stereo not drawn)

- MIC [4]: 8 µg/mL (≈ 20.5 µM)
- MIC [5]: 4 µg/mL (≈ 10.2 µM)
- MIC [6]: 8 µg/mL (≈ 20.5 µM)
- MIC [7]: 8 µg/mL (≈ 20.5 µM)
- MIC [8]: 4 µg/mL (≈ 10.2 µM)
- MIC [9]: 2 µg/mL (≈ 5.12 µM)
- MIC [10]: 32 µg/mL (≈ 81.9 µM)
- MIC [11]: 128 µg/mL (≈ 328 µM)
Structure (SMILES): O=C1c2c(Cl)cccc2NC2(C(=O)Nc3ccccc32)N1Nc1ccccc1 (stereo not drawn)

- IC50 [12]: 51200 nM
- IC50 [13]: 6300 nM
Structure (SMILES): N#CC1=C(N)Oc2c(ccc3[nH]c4ccccc4c23)C12C(=O)N(Cc1cn(Cc3ccc([N+](=O)[O-])cc3)nn1)c1ccccc12 (stereo not drawn)

- MIC [14]: 20 µg/mL (≈ 40.4 µM)
- MIC [15]: 30 µg/mL (≈ 60.6 µM)
Structure (SMILES): O=C(c1ccc(F)cc1)C1C(c2ccc(Br)cc2)C(CO)NC12C(=O)Nc1ccccc12 (stereo not drawn)
- Activity [16]: 87.4%

- IC50 [22]: 50000 nM
Structure (SMILES): C#CCN1C(=O)[C@]2(c3ccccc31)N(C)C[C@@](C#N)(C(=O)c1c[nH]c3ccccc13)[C@@]21C(=O)Nc2ccccc21

- IC50 [24]: 66300 nM
Structure (SMILES): COc1ccc2[nH]cc(C(=O)C3(C#N)C(c4ncc[nH]4)CN(C)C34C(=O)Nc3ccccc34)c2c1 (stereo not drawn)

- MIC [25]: 0.12 µg/mL (≈ 0.203 µM)
- MIC [26]: 0.015 µg/mL (≈ 0.0254 µM)
- MIC [27]: 15.6 µg/mL (≈ 26.5 µM)
- MIC [28]: 1.95 µg/mL (≈ 3.3 µM)
- MIC [29]: 0.015 µg/mL (≈ 0.0254 µM)
- MIC [30]: 1.95 µg/mL (≈ 3.3 µM)
- MIC [31]: 0.015 µg/mL (≈ 0.0254 µM)
- MIC [32]: 0.06 µg/mL (≈ 0.102 µM)
Structure (SMILES): CCOC(=O)N1C/C(=C\c2ccc(Cl)cc2)C(=O)[C@@]2(C1)[C@H](c1ccc(Cl)cc1)CN(C)[C@]21C(=O)Nc2ccccc21

- MIC [4]: < 2 µg/mL
- MIC [5]: < 2 µg/mL
- MIC [6]: 2 µg/mL (≈ 4.59 µM)
- MIC [7]: 8 µg/mL (≈ 18.4 µM)
- MIC [8]: 2 µg/mL (≈ 4.59 µM)
- MIC [9]: 2 µg/mL (≈ 4.59 µM)
- MIC [10]: < 2 µg/mL
- MIC [11]: 8 µg/mL (≈ 18.4 µM)
- MIC [33]: 16 µg/mL (≈ 36.7 µM)
- MIC [34]: 16 µg/mL (≈ 36.7 µM)
Structure (SMILES): O=C1c2c(Cl)cccc2NC2(C(=O)Nc3ccc([N+](=O)[O-])cc32)N1Nc1ccccc1 (stereo not drawn)

- IC50 [1]: 2100 nM
Structure (SMILES): N#CC1=C(N)OC2=C(C(=O)c3ccccc32)C12C(=O)Nc1ccc(Cl)cc12 (stereo not drawn)

Reference: ChEMBL document CHEMBL5226286, “The application of isatin-based multicomponent-reactions in the quest for new bioactive and druglike molecules” (Eur J Med Chem, 2021)
